# Measured values from ChEMBL document CHEMBL1201862, “PubChem BioAssay data set” (2004).
# Active and inactive are the calls of the source.
# Assays:
# Insulin-degrading enzyme [1] = biological target: T1, Insulin-degrading enzyme (Homo sapiens, UniProt P14735); test: activators of recombinant IDE enzyme, dose response, counter-screen for IDE activator project, biochemical, fluorescence polarization (AID 588681)
# Insulin-degrading enzyme [2] = biological target: T1, Insulin-degrading enzyme; test: activators of endogenous IDE in HEK cells, dose response, cell-based, fluorescence polarization (AID 588439); assay type: functional
# cells [3] = assay type: functional, cell-based
# cells [4] = assay type: functional, cell-based; remark: listed apart in the source
# HEK293 [5] = test: HEK cell cytotoxicity by LDH release, dose response, cytotoxicity control for IDE activator project, fluorescence, HEK cells (AID 588440); assay type: functional, cell-based; details: Homo sapiens;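 also: cytotoxicity by LDH release measuring loss of membrane integrity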
# HEK293 [6] = test: optical interference in Abeta FP readout, dose response, artefact control for IDE activator project, biochemical, fluorescence polarization (AID 588442); assay type: functional, cell-based; details: Homo sapiens
# Aurora kinase A = Aurora kinase A (Homo sapiens, UniProt O14965); assay type: functional;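 also: value from the Navigating the Kinome kinase panel profiling, panel entry STK6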
# [7] = biological target: Vascular endothelial growth factor receptor 2 (Homo sapiens, UniProt P35968); assay type: functional
# Aurora kinase B = Aurora kinase B (Homo sapiens, UniProt Q96GD4); assay type: functional
# NIH3T3 = test: mammalian cell toxicity in NIH-3T3 fibroblasts, dose response, cytotoxicity control for antifungal resistance reversal project, Alamar Blue, dry powder, set 2 (AID 488911); assay type: functional, cell-based; details: Mus musculus
# [8] = Vero cell cytotoxicity, cytotoxicity control for M. tuberculosis inhibitor project, purified and synthesized samples, set 3 (AID 504684); assay type: functional
# [9] = THP-1 cell cytotoxicity, dose response, cytotoxicity control, set 3 (AID 504852); assay type: functional; details: Mycobacterium tuberculosis
# [10] = A Cell Based Secondary Assay to Explore Cytotoxicity in HepG2 Cells of Compounds that Modulate Mycobacterium tuberculosis in Media Containing Glycerol versus Media without Glycerol (2).; assay type: functional
# [11] = THP-1 cell cytotoxicity, cytotoxicity control, set 4 (AID 504911); assay type: functional; details: Mycobacterium tuberculosis
# [12] = A Cell Based Secondary Assay to Explore Cytotoxicity in THP-1 Cells of Compounds that Modulate Mycobacterium tuberculosis in Media Containing Glycerol versus Media without Glycerol (2).; assay type: functional
# [13] = Vero cell cytotoxicity, dose response, cytotoxicity control for M. tuberculosis growth inhibitor project, Vero cells, purified and synthesized compounds, set 5 (AID 504909); assay type: functional; details: Mycobacterium tuberculosis
# [14] = Vero cell cytotoxicity, dose response, cytotoxicity control for M. tuberculosis growth inhibitor project, Vero cells, purified and synthesized compounds, set 4 (AID 504854); assay type: functional; details: Mycobacterium tuberculosis
# Melanocortin receptor 4 = Melanocortin receptor 4 (Homo sapiens, UniProt P32245); test: MC4R antagonist potency on cAMP, dose response, cell-based, TR-FRET, biased antagonists (AID 602298); assay type: functional;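 also: antagonist potency against agonist-stimulated cAMP production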
# [15] = nonselective inhibitors of cellular cAMP signaling, dose response, counter-screen for MC4R biased antagonist project, cell-based, TR-FRET cAMP detection (AID 602305); assay type: functional;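 also: U2OS cells stimulated with forskolin near its EC80 as the cAMP inducer; potency is for inhibition of forskolin-stimulated cAMP signaling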
# [16] = inhibitors of intracellular T. cruzi replication, confirmation, NIH3T3 host cells, beta-gal luminescence (AID 2044); assay type: functional, cell-based;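 also: intracellular parasites grown in NIH/3T3 mouse fibroblasts as host cells; luminescent beta-galactosidase reporter signal from transgenic T. cruzi replicating inside host cells; inhibitors lower the luminescence signal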
# [17] = cytotoxicity toward NIH3T3 fibroblasts, dose response, counter-screen, cell-based, ATP luminescence, mouse fibroblasts (AID 2010); assay type: functional;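 also: cells exposed to compound for about 90 hours before reading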
# [18] = biological target: Multidrug resistance protein CDR1 (Candida albicans, UniProt P43071); test: CaCDR1 efflux pump inhibitors in yeast, dose response, S. cerevisiae AD1-8u, singleplex, Cherry Pick1 hits (AID 588606); assay type: functional
# Sequence of Multidrug resistance protein CDR1 (P43071 whole entry, looked up): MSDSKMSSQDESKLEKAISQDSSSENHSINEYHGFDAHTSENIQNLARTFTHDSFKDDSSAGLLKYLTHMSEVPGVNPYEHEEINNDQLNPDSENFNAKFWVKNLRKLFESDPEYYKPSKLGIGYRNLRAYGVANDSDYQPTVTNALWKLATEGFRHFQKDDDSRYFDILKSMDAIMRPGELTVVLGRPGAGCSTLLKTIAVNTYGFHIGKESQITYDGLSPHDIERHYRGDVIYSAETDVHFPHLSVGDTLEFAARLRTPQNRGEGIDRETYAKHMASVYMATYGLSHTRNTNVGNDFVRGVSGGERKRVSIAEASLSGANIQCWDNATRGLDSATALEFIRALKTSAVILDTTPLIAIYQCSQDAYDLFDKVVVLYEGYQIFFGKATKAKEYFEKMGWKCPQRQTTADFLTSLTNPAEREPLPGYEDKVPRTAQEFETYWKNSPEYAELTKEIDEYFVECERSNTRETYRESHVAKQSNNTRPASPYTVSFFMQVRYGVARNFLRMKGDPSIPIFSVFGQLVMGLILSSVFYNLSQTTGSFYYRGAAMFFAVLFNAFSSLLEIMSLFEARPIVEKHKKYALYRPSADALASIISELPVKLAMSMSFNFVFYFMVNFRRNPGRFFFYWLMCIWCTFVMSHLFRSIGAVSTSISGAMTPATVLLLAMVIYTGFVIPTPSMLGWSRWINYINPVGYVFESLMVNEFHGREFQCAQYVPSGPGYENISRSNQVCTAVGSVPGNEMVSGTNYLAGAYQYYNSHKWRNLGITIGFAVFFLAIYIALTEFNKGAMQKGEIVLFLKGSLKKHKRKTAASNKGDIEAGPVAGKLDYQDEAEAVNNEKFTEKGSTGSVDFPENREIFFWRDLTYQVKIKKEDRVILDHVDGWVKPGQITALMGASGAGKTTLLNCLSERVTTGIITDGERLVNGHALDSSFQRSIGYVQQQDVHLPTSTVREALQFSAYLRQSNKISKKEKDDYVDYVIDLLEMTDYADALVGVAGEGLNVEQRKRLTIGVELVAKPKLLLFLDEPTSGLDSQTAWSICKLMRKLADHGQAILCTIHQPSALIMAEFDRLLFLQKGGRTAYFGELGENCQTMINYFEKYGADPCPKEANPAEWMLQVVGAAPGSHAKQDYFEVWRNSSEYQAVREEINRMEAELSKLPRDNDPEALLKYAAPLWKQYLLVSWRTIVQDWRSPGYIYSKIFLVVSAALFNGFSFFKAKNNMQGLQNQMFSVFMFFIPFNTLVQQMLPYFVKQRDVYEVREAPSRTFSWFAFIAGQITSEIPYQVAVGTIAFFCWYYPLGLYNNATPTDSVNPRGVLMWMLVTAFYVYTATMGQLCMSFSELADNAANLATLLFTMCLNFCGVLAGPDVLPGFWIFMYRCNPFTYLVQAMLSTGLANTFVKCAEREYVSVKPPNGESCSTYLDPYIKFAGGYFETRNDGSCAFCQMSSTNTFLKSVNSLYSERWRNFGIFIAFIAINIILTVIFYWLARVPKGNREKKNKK
# T1 sequence (P14735 whole entry): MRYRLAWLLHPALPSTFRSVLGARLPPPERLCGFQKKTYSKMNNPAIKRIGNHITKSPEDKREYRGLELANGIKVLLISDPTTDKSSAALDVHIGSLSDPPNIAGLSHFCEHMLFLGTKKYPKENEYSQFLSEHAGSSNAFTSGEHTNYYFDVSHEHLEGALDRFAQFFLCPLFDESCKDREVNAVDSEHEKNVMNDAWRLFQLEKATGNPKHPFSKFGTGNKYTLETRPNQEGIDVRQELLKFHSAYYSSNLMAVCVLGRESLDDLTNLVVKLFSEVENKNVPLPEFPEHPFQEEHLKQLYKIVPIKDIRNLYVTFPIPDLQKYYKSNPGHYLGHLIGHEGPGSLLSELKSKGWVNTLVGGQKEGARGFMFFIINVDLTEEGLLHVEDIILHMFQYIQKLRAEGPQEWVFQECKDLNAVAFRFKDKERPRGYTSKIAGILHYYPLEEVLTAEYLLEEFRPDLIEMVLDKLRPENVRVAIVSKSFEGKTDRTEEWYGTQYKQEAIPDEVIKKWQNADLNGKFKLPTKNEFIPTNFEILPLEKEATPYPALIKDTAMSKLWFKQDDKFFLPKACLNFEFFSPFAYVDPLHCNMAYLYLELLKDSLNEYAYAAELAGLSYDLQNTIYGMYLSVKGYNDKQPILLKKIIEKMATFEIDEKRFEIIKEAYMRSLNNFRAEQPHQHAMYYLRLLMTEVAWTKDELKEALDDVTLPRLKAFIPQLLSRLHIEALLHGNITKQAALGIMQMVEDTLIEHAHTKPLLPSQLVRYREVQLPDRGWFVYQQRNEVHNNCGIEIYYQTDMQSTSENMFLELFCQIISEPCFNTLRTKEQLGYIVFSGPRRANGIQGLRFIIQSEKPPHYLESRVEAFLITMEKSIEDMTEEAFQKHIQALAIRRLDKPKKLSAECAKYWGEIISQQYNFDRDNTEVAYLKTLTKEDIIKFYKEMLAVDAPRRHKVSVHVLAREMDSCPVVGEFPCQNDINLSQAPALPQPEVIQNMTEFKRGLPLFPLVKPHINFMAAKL
# Sequence of Aurora kinase A (O14965 whole entry): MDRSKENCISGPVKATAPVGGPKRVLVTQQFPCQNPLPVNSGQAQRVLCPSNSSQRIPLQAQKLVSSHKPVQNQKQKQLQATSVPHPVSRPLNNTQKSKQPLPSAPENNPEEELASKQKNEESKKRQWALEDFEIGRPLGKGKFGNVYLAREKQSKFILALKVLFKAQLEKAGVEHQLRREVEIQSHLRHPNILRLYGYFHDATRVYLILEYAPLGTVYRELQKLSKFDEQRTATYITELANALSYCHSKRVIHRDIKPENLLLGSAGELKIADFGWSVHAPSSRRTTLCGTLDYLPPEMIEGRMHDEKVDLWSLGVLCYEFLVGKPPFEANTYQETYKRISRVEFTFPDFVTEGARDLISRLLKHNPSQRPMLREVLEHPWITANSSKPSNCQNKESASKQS
# Sequence of Aurora kinase B (Q96GD4 whole entry): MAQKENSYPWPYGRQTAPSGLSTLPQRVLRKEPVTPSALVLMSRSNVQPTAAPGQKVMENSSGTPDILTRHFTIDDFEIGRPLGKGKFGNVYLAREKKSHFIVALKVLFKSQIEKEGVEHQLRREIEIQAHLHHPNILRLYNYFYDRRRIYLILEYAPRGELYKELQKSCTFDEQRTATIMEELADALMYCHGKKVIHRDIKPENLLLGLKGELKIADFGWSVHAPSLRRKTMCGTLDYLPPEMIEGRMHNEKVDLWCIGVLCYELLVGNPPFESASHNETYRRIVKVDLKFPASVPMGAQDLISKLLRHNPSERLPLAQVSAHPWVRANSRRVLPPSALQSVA
# Sequence of Melanocortin receptor 4 (P32245 whole entry): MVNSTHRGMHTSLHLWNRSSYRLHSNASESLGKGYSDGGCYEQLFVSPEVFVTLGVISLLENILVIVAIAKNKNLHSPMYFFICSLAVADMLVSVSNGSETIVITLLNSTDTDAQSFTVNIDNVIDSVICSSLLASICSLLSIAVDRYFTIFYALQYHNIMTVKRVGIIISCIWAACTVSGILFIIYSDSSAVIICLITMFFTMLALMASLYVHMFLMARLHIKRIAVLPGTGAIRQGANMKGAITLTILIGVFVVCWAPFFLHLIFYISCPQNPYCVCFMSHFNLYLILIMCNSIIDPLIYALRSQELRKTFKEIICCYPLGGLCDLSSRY
# Sequence of Vascular endothelial growth factor receptor 2 (P35968 whole entry): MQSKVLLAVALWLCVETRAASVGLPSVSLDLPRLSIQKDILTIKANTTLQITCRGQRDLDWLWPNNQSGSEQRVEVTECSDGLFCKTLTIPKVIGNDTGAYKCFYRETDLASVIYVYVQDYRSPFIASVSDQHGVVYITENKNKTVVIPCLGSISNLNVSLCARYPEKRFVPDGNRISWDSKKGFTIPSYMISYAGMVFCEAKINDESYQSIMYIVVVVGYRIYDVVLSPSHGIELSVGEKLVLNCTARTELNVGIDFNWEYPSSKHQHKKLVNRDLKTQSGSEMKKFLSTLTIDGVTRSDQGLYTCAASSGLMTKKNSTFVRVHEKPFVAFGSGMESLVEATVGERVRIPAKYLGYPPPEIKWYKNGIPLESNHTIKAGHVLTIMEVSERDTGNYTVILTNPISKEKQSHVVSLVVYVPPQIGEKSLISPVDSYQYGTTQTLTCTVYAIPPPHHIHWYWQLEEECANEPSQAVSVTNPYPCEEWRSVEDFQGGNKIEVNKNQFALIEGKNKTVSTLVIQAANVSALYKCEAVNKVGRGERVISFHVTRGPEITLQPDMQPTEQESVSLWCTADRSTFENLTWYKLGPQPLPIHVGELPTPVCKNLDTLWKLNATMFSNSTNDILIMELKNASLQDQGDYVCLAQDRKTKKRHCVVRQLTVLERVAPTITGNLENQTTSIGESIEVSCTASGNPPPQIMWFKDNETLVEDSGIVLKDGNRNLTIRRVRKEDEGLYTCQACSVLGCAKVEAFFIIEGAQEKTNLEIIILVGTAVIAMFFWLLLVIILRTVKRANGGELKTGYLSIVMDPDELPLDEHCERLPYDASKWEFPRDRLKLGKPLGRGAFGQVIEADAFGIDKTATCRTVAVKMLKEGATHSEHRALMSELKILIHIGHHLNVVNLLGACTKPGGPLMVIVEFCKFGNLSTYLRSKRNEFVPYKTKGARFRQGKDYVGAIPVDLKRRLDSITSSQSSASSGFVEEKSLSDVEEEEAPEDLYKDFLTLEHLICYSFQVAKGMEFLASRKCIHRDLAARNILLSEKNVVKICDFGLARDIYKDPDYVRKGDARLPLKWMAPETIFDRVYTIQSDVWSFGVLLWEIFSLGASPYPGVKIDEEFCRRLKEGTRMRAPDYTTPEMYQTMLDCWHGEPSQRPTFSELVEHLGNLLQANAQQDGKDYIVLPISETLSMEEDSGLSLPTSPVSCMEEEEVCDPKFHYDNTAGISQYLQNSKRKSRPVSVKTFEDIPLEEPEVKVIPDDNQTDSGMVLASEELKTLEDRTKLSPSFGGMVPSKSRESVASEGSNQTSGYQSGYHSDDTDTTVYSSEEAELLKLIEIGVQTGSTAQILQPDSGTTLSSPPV
structure (smiles),measurement,setting,value
COc1ccc(NC(=O)C2CCN(S(=O)(=O)c3ccc4c(c3)CC(C)N4C(C)=O)CC2)cc1OC (configuration not stated),EC50,Insulin-degrading enzyme [1],> 54.7 µM (inactive)
same,EC50,Insulin-degrading enzyme [2],> 54.7 µM (inactive)
same,EC50,cells [3],> 350 µM (not active)
same,EC50,cells [4],> 350 µM (not active)
same,IC50,HEK293 [5],> 89.2 µM (inactive)
same,EC50,HEK293 [6],> 54.7 µM (inactive)
COc1ccc(-c2cc(=O)c3c(O)c(OC)c(OC)cc3o2)cc1O [EUPATORIN],Ki,Aurora kinase A,1 µM (active)
same,Ki,[7],0.794 µM (active)
same,Ki,Aurora kinase B,0.0398 µM (active)
O=C(O)Cn1nc(-c2ccccc2)c2ccccc21,AC50,NIH3T3,> 260 µM (inactive)
COC(=O)C(Nc1nc(SCC(=O)NC2CCCCC2)nc2ccccc12)c1ccccc1 (configuration not stated),CC50,[8],73.2 µM (active)
same,CC50,[9],41.1 µM (active)
same,CC50,[10],> 50 µM (active)
same,CC50,[11],129 µM (active)
same,CC50,[12],70.9 µM (active)
same,CC50,[13],> 100 µM (active)
same,CC50,[14],66 µM (active)
N#Cc1c(N2CCN(C(=O)c3ccco3)CC2)nc(-c2ccccc2)c2c1CCCC2,IC50,Melanocortin receptor 4,> 64.6 µM (inactive)
same,IC50,[15],> 64.6 µM (inactive)
same,EC50,[16],2.31 µM (active)
same,EC50,[17],> 60 µM (not active)
CCSc1cc(N2CCOCC2)nc(-c2ccccc2)n1,EC50,[18],0.016 µM (active)
